Biological target: ACC2 (Homo sapiens, UniProt O00763)
Test: In vitro ACC2 inhibition assay (ADP-Glo)
Format: biochemical
Conditions: read-out: ACC2
Outline: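 Enzyme (human ACC1 or ACC2) and compound, serially diluted 1:3 over 11 points from a 600 uM DMSO stock, were preincubated 15 min before substrate addition.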

Chain of ACC2 (O00763 whole entry, species assumed): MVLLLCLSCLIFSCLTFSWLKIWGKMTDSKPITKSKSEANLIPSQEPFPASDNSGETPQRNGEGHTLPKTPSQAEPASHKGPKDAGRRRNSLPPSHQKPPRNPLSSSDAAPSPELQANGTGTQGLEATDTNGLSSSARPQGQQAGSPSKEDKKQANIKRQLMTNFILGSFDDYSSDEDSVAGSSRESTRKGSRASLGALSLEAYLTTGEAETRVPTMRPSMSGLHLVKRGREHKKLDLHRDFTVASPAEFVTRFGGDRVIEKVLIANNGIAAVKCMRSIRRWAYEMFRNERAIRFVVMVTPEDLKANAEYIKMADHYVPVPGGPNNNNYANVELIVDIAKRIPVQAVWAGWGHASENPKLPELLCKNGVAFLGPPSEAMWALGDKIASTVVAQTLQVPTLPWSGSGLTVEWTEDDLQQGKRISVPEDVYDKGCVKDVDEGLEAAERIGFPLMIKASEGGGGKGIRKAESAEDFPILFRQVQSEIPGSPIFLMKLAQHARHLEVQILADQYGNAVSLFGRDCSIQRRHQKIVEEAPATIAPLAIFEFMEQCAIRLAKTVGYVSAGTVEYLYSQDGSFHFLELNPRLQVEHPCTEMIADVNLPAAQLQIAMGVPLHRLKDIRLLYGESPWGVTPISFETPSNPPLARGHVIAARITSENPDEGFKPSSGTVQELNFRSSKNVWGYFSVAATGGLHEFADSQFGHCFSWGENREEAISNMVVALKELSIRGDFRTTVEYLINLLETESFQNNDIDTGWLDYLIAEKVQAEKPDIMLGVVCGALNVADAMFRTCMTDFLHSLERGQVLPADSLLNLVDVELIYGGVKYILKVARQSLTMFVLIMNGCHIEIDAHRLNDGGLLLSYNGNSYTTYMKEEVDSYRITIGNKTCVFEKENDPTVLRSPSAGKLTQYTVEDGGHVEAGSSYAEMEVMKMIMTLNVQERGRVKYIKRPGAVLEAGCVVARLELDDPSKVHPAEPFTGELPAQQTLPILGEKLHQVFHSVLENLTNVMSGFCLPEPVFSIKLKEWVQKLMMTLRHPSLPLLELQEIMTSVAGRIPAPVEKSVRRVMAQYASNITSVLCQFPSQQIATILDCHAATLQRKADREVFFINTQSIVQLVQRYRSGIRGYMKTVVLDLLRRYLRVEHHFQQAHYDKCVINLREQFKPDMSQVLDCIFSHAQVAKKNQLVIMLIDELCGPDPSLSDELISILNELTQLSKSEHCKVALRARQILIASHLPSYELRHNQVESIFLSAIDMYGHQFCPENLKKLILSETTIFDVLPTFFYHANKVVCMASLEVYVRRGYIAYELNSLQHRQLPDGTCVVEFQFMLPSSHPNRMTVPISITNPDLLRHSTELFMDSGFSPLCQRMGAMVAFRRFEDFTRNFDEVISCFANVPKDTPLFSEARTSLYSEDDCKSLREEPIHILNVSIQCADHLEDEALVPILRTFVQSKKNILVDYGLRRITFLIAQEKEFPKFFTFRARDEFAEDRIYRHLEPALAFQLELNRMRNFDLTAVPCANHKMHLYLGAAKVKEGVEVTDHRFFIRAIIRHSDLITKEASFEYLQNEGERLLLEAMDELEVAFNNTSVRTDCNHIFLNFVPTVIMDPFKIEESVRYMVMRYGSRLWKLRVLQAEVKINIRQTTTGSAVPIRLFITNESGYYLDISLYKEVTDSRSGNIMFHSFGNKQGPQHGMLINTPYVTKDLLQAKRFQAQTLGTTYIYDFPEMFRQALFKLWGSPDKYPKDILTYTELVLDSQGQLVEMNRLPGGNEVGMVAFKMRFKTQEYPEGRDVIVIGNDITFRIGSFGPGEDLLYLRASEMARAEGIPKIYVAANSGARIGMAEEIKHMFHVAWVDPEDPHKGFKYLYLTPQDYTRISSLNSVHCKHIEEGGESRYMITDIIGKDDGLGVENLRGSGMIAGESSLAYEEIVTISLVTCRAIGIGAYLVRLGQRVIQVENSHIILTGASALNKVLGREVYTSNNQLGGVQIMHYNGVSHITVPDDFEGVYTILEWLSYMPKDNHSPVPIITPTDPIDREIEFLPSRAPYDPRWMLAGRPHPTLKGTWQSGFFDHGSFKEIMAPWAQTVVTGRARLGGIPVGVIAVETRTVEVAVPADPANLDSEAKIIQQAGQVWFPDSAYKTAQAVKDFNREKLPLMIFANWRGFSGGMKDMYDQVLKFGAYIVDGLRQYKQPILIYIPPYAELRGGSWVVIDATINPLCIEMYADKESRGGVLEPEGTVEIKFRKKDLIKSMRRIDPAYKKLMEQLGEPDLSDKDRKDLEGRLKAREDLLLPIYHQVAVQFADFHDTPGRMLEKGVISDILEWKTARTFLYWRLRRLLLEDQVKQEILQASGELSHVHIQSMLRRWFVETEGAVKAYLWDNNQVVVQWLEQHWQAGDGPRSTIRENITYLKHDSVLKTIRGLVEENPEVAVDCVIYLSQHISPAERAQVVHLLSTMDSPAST

| Structure (SMILES) | IC50 [µM] |
| --- | --- |
| O=C(O)Cn1c(=O)c2c3c(sc2n(CC(=O)c2ccccc2)c1=O)CCCC3 [I-2] | > 50 |
| CCOC(=O)c1sc2c(c1C)c(=O)n(CC(=O)O)c(=O)n2CCc1ccccc1Br [I-54, 2-[1-[2-(2-bromophenyl)ethyl]-6-(ethoxycarbonyl)-5-methyl-2,4-dioxo-1H,2H,3H,4H-thieno[2,3-d]pyrimidin-3-yl]acetic acid] | 5 to 20 |
| O=C(O)Cn1c(=O)c2ccsc2n(CCc2ccccc2)c1=O [I-65, 2-[2,4-dioxo-1-(2-phenylethyl)-1H,2H,3H,4H-thieno[2,3-d]pyrimidin-3-yl]acetic acid] | > 50 |
| CCNC(=O)c1sc2c(c1C)c(=O)n(CCO)c(=O)n2CCc1ccccc1 [I-18] | > 50 |
| CCOC(=O)c1sc2c(c1C)c(=O)n(C(C)(C)C(=O)O)c(=O)n2C[C@@H](OC)c1ccccc1 [I-111, 2-[6-(ethoxycarbonyl)-1-[(2S)-2-methoxy-2-phenylethyl]-5-methyl-2,4-dioxo-1H,2H,3H,4H-thieno[2,3-d]pyrimidin-3-yl]-2-methylpropanoic acid] | 5 to 20 |
| CCOC(=O)c1sc2c(c1C)c(=O)n(C(C)(C)C(=O)O)c(=O)n2C[C@@H](OC(C)(C)C)c1ccccc1 [I-128, 2-[1-[(2S)-2-(tert-butoxy)-2-phenylethyl]-6-(ethoxycarbonyl)-5-methyl-2,4-doxo-1H,2H,3H,4H-thieno[2,3-d]pyrimidin-3-yl]-2-methylpropanoic acid] | 20 to 50 |
| Cc1c(-c2ncco2)sc2c1c(=O)n(C(C)(C)C(=O)O)c(=O)n2C[C@H](OC1CCOCC1)c1ccccc1CO [I-296, 2-[1-[(2R)-2-[2-(hydroxymethyl)phenyl]-2-(oxan-4-yloxy)ethyl]-5-methyl-6-(1,3-oxazol-2-yl)-2,4-dioxo-1H,2H,3H,4H-thieno[2,3-d]pyrimidin-3-yl]-2-methylpropanoic acid] | < 0.1 |
| Cc1c(C(N)=O)sc2c1c(=O)n(CC(=O)O)c(=O)n2CCc1ccccc1 [I-71, 2-[6-carbamoyl-5-methyl-2,4-dioxo-1-(2-phenylethyl)-1H,2H,3H,4H-thieno[2,3-d]pyrimidin-3-yl]acetic acid] | > 50 |
| CCOC(=O)c1sc2c(c1C)c(=O)n([C@H](C)C(=O)O)c(=O)n2CCc1ccccc1 [I-76, (2R)-2-[6-(ethoxycarbonyl)-5-methyl-2,4-dioxo-1-(2-phenylethyl)-1H,2H,3H,4H-thieno[2,3-d]pyrimidin-3-yl]propanoic acid] | < 5 |
| [2H]c1ccc(CCn2c(=O)n(CC(=O)O)c(=O)c3c(C)c(C(=O)OCC)sc32)cc1 [I-66, 2-(1-(4-deuterophenethyl)-6-(ethoxycarbonyl)-5-methyl-2,4-doxo-1,2-dihydrothieno[2,3-d]pyrimidin-3(4H)-yl)acetic acid] | < 5 |
| CCOC(=O)c1sc2c(c1C)c(=O)n(CC(C)(C)O)c(=O)n2CCc1ccccc1 [I-79, ethyl 3-(2-hydroxy-2-methylpropyl)-5-methyl-2,4-dioxo-1-(2-phenylethyl)-1H,2H,3H,4H-thieno[2,3-d]pyrimidine-6-carboxylate] | 5 to 20 |
| Cc1c(-n2cncn2)sc2c1c(=O)n(C(C)(C)C(=O)O)c(=O)n2C[C@H](OC(C)C)c1ccccc1 [I-157, 2-methyl-2-[5-methyl-2,4-dioxo-1-[(2R)-2-phenyl-2-(propan-2-yloxy)ethyl]-6-(1H-1,2,4-triazol-1-yl)-1H,2H,3H,4H-thieno[2,3-d]pyrimidin-3-yl]propanoic acid] | 20 to 50 |
| CCOC(=O)c1sc2c(c1C)c(=O)n(CCO)c(=O)n2CCc1c(F)cccc1F [I-24] | > 50 |
| CCOC(=O)c1sc2c(c1C)c(=O)n(C[C@H](C)O)c(=O)n2CCc1ccccc1 [I-82, ethyl 3-[(2S)-2-hydroxypropyl]-5-methyl-2,4-dioxo-1-(2-phenylethyl)-1H,2H,3H,4H-thieno[2,3-d]pyrimidine-6-carboxylate] | 5 to 20 |
| CCOC(=O)c1sc2c(c1C)c(=O)n(C(C)(C)C(=O)O)c(=O)n2CCc1ccc(I)cc1 [I-95, 2-[6-(ethoxycarbonyl)-1-[2-(4-iodophenyl)ethyl]-5-methyl-2,4-dioxo-1H,2H,3H,4H-thieno[2,3-d]pyrimidin-3-yl]-2-methylpropanoic acid] | 20 to 50 |
| CCOC(=O)c1sc2c(c1C)c(=O)n(CC(=O)O)c(=O)n2CCc1nc2ccccc2s1 [I-84, 2-[1-[2-(1,3-benzothiazol-2-yl)ethyl]-6-(ethoxycarbonyl)-5-methyl-2,4-dioxo-1H,2H,3H,4H-thieno[2,3-d]pyrimidin-3-yl]acetic acid] | > 50 |
| CCOC(=O)c1sc2c(c1C)c(=O)n(CCO)c(=O)n2CCc1nc2ccccc2s1 [I-44] | > 50 |
| CCOC(=O)c1sc2c(c1C)c(=O)n(CCOCc1ccccc1)c(=O)n2CCc1ccccc1 [I-10, ethyl 3-[2-(benzyloxy)ethyl]-5-methyl-2,4-dioxo-1-(2-phenylethyl)-1H,2H,3H,4H-thieno[2,3-d]pyrimidine-6-carboxylate] | > 50 |

| Structure (SMILES) | IC50 [µM] |
| --- | --- |
| CCOC(=O)c1sc2c(c1C)c(=O)n(CCO)c(=O)n2Cc1ccc2[nH]ccc2c1 [I-51, ethyl 3-(2-hydroxyethyl)-1-(1H-indol-5-ylmethyl)-5-methyl-2,4-dioxo-1H,2H,3H,4H-thieno[2,3-d]pyrimidine-6-carboxylate] | > 50 |
| O=C(O)Cn1c(=O)c2c3c(sc2n(CCc2ccccc2)c1=O)CCC3 [I-4] | 20 to 50 |
| CCOC(=O)c1sc2c(c1C)c(=O)n(CC(=O)O)c(=O)n2C[C@H](O)c1ccccc1 [I-78, 2-[6-(ethoxycarbonyl)-1-[(2R)-2-hydroxy-2-phenylethyl]-5-methyl-2,4-dioxo-1H,2H,3H,4H-thieno[2,3-d]pyrimidin-3-yl]acetic acid] | < 5 |
| Cc1c(-c2ncco2)sc2c1c(=O)n(C(C)(C)C(=O)O)c(=O)n2C[C@H](O[C@H](C)CO)c1ccccc1 [I-184, 2-[1-[(2R)-2-[[(2R)-1-hydroxypropan-2-yl]oxy]-2-phenylethyl]-5-methyl-6-(1,3-oxazol-2-yl)-2,4-dioxo-1H,2H,3H,4H-thieno[2,3-d]pyrimidin-3-yl]-2-methylpropanoic acid] | < 1 |
| CCOC(=O)c1sc2c(c1C)c(=O)n(CCCCO)c(=O)n2CCc1ccccc1 [I-34, ethyl 3-(4-hydroxybutyl)-5-methyl-2,4-dioxo-1-(2-phenylethyl)-1H,2H,3H,4H-thieno[2,3-d]pyrimidine-6-carboxylate] | 5 to 20 |
| CCOC(=O)c1sc2c(c1C)c(=O)n(CC(=O)O)c(=O)n2Cc1ccc2[nH]ccc2c1 [I-90, 2-[6-(ethoxycarbonyl)-1-(1H-indol-5-ylmethyl)-5-methyl-2,4-dioxo-1H,2H,3H,4H-thieno[2,3-d]pyrimidin-3-yl]acetic acid] | 20 to 50 |
| CCOC(=O)c1sc2c(c1C)c(=O)n(CCO)c(=O)n2CCc1ccc(Cl)cc1 [I-17] | > 50 |
| CCCOC(=O)c1sc2c(c1C)c(=O)n(CC(=O)O)c(=O)n2CCc1ccccc1 [I-68, 2-[5-methyl-2,4-dioxo-1-(2-phenylethyl)-6-(propoxycarbonyl)-1H,2H,3H,4H-thieno[2,3-d]pyrimidin-3-yl]acetic acid] | 5 to 20 |
| Cc1c(-c2ncco2)sc2c1c(=O)n(C(C)(C)C(=O)O)c(=O)n2C[C@H](OC1CCC(C)(C)CC1)c1ccccc1 [I-148, 2-[1-[(2R)-2-[(4,4-dimethylcyclohexyl)oxy]-2-phenylethyl]-5-methyl-6-(1,3-oxazol-2-yl)-2,4-dioxo-1H,2H,3H,4H-thieno[2,3-d]pyrimidin-3-yl]-2-methylpropanoic acid] | < 5 |
| CCOC(=O)c1sc2c(c1C)c(=O)n([C@@H](C)C(=O)O)c(=O)n2CCc1ccccc1 [I-80, (2S)-2-[6-(ethoxycarbonyl)-5-methyl-2,4-dioxo-1-(2-phenylethyl)-1H,2H,3H,4H-thieno[2,3-d]pyrimidin-3-yl]propanoic acid] | < 5 |
| Cc1c(-c2ncco2)sc2c1c(=O)n(C(C)(C)C(=O)O)c(=O)n2C[C@H](OCC(F)(F)F)c1ccccc1 [I-137, 2-methyl-2-[5-methyl-6-(1,3-oxazol-2-yl)-2,4-dioxo-1-[2-phenyl-2-(2,2,2-trifluoroethoxy)ethyl]-1H,2H,3H,4H-thieno[2,3-d]pyrimidin-3-yl]propanoic acid] | < 1 |
| Cc1c(-n2cccn2)sc2c1c(=O)n(C(C)(C)C(=O)O)c(=O)n2CCc1ccccc1 [I-116, 2-methyl-2-[5-methyl-2,4-dioxo-1-(2-phenylethyl)-6-(1H-pyrazol-1-yl)-1H,2H,3H,4H-thieno[2,3-d]pyrimidin-3-yl]propanoic acid] | < 5 |
| CCOC(=O)c1sc2c(c1C)c(=O)n(C(C)(C)C(=O)O)c(=O)n2CCc1ccccc1O [I-99, 2-[6-(ethoxycarbonyl)-1-[2-(2-hydroxyphenyl)ethyl]-5-methyl-2,4-dioxo-1H,2H,3H,4H-thieno[2,3-d]pyrimidin-3-yl]-2-methylpropanoic acid] | < 5 |
| Cc1c(-c2ncc(Cl)o2)sc2c1c(=O)n(C(C)(C)C(=O)O)c(=O)n2C[C@H](OC(C)C)c1ccccc1 [I-156, 2-[6-(5-chloro-1,3-oxazol-2-yl)-5-methyl-2,4-dioxo-1-[(2R)-2-phenyl-2-(propan-2-yloxy)ethyl]-1H,2H,3H,4H-thieno[2,3-d]pyrimidin-3-yl]-2-methylpropanoic acid] | < 5 |
| CCOC(=O)c1sc2c(c1C)c(=O)n(CC(=O)O)c(=O)n2Cc1ccc2c(c1)OCO2 [I-50, 2-[1-(2H-1,3-benzodioxol-5-ylmethyl)-6-(ethoxycarbonyl)-5-methyl-2,4-dioxo-1H,2H,3H,4H-thieno[2,3-d]pyrimidin-3-yl]acetic acid] | > 50 |
| CCOC(=O)c1sc2c(c1C)c(=O)n(CCOC)c(=O)n2CCc1ccccc1 [I-6, ethyl 3-(2-methoxyethyl)-5-methyl-2,4-dioxo-1-(2-phenylethyl)-1H,2H,3H,4H-thieno[2,3-d]pyrimidine-6-carboxylate] | 20 to 50 |
| CCOC(=O)c1sc2c(c1C)c(=O)n(CS(C)(=O)=O)c(=O)n2CCc1ccccc1 [I-72] | > 50 |
| Cc1c(-c2ncco2)sc2c1c(=O)n(CC(=O)O)c(=O)n2CCc1ccccc1 [I-92, 2-[5-methyl-6-(1,3-oxazol-2-yl)-2,4-dioxo-1-(2-phenylethyl)-1H,2H,3H,4H-thieno[2,3-d]pyrimidin-3-yl]acetic acid] | < 5 |
